Experimental data published in article PMC9000427, “Synthesis and Anti-Trypanosoma cruzi Biological Evaluation of Novel 2-Nitropyrrole Derivatives” (Molecules, 2022).
“And” between values parts separate entries of the source, which are not always exact repeats. Identical values can stand only once. Like-named read-outs stand apart in the source and are kept apart here.

Assays:
Vero host cells = experiment: Cytotoxicity against Vero host cells in the T. cruzi intracellular assay; format: cell-based; settings: Chlorocebus sabaeus
Experimental: (§1) These new derivatives were evaluated in vitro against the intracellular T. cruzi strain X10/7-Silvio by determining their 50% efficacy concentration (EC50) and were compared to the reference anti-T. cruzi drug nifurtimox. The in vitro 50% cytotoxic concentrations (CC50) were assessed on the CHO cell line and compared to a cytotoxic reference drug, doxorubicin. In vitro cytotoxicity against vero host cells was also assessed (vero cells EC50).
Vero cells (ECCAC 84113001) were screened for mycoplasma infection and maintained in MEM medium supplemented with Glutamax (Life Technologies) and 10% (v/v) foetal calf serum (FCS) at 37 °C in the presence of 5% CO2. T. cruzi parasites (Silvio X10/7 A1), a clonal line kindly provided by Susan Wyllie and Prof. Alan Fairlamb were maintained in Vero cells. On a weekly basis, emerged trypomastigotes were used to infect a new Vero monolayer at the multiplicity of infection (MOI) 1.5 [32].
For the primary intracellular assay, the infection conditions were chosen so that no trypomastigote egress occurs during the compound incubation time. First, Vero cells were infected overnight with tissue culture-derived T. cruzi trypomastigotes in T225 tissue culture flasks (MOI 5).
Next, any remaining free trypomastigotes were washed away with serum-free MEM, and the infected Vero cells were harvested by trypsinisation. The infected Vero cells were then plated into 384-well plates containing the compounds to be tested, at 4000 cells per well in MEM media with 1% FCS. After 96h incubation at 37 °C in the presence of 5% CO2, the plates were fixed with 4% formaldehyde for 20 min at room temperature and stained with 5μg/mL Hoechst 33342. The plates were imaged on a Perkin Elmer Operetta high-content imaging system using a 20× objective. Images were analysed using the Columbus system (Perkin Elmer). The algorithm for the primary assay first identified the Vero nuclei followed by the demarcation of the cytoplasm and identification of intracellular amastigotes. This algorithm reported the mean number of parasites per Vero cell and the total number of Vero cells. The data analysis was as previously described.

in vitro = format: cell-based; settings: Chinese hamster, CC50 CHO
Experimental: as §1
The toxicity of compounds towards Chinese hamster ovary cells (CHO-K1, ATCC CCL61) was evaluated by the NRU toxicity test, based on the concentration-dependent reduction of the uptake of the vital dye neutral red when measured 24 h after chemical treatment. Cells were grown in McCoy’s medium supplemented with Penicillin 100 IU/mL and streptomycin 100 μg/mL, and 10% of inactivated calf serum, and incubated at 37 °C in CO2 5% atmosphere. They were seeded into two 96-well tissue culture plates (0.1 mL per well), at a concentration of 1 × 10^5 cells/mL, and incubated at 37 °C (5% CO2) for 24 h, until confluent. The culture medium was decanted and replaced by 100 µL of fresh medium containing the appropriate concentrations of the compounds (eight different concentrations in triplicate), then cells were incubated at 37 °C (5% CO2) in the dark for 24 h. At the end of the incubation period, cells were washed, placed into neutral red medium (50 μg/mL neutral red in complete medium). This vital dye is a weak cationic dye that penetrates membranes of living cells by […] and accumulates intracellularly in lysosomes. On the contrary, alterations of the cell surface or metabolism result in a decreased uptake and binding of NR in non-viable cells. Cells were incubated for 3 h at 37°C, 5% CO2, and then the culture medium was removed, and cells were washed three times with 0.2 mL of PBS to remove excessive dye. Destaining solution (50% ethanol, 1% acetic acid, 49% distilled water; 50µL per well) was added into the wells, and the plates were shaken for 15–20 min at room temperature in the dark. The degree of cell viability was measured by a fluorescence–luminescence reader. The optical density (OD) of each well was read at 540 nm. The results obtained for wells treated with the test compounds were compared to those of untreated control wells (100% viability) and converted to percentage values. The mean OD value of blank wells (containing only neutral red desorbed solution) was subtracted from the mean OD value of three treated wells (dilutions of the test material, positive control or HBSS). The percentages of cell viability were calculated as:Viability (%) = (Mean OD of test wells-mean OD of blanks) × 100 / (Mean OD of negative control − mean OD of blanks)
The concentration of the test substances causing a 50% release of neutral red as compared to the control culture was calculated by non-linear regression analysis using software Phototox Version 2.0.

[1] = system: T. cruzi X10/7 intracellular amastigotes; experiment: T. cruzi intracellular assay (infected Vero cells, high-content imaging); format: cell-based, Trypanosoma cruzi
Experimental: The infected Vero cells were then plated into 384-well plates containing the compounds to be tested, at 4000 cells per well in MEM media with 1% FCS. […] The plates were imaged on a Perkin Elmer Operetta high-content imaging system using a 20× objective. Images were analysed using the Columbus system (Perkin Elmer).

[2] = Vero host cells, 96h incubation, concentrations up to 50 µM, read-out: Vero cells EC50
[3] = Trypanosoma cruzi, Vero, 96 h, intracellular T. cruzi strain X10/7-Silvio, 96h incubation, mean ± SD of two independent biological replicates, read-out: EC50 T. cruzi
[4] = Replicate 1, inhibition of Vero host cell growth, read-out: C_pXC50 host cells
[5] = Trypanosoma cruzi, Vero, Replicate 1, dose response curve, read-out: pXC50 intracellular amastigotes (converted)
[6] = Trypanosoma cruzi, Vero, Replicate 2, dose response curve, read-out: pXC50 intracellular amastigotes (converted)
[7] = intracellular T. cruzi strain X10/7-Silvio, 96h incubation, mean ± SD of two independent biological replicates, read-out: EC50 T. cruzi

melting point [°C]	EC50 [1, 3] [µM]	SMILES	EC50 (Vero host cells; [2]) [µM]	CC50 at 24 h (in vitro) [µM]	further results
174 to 175	34.5 ± 21.9	O=C(Cn1cccc1[N+](=O)[O-])NCc1ccccc1 [Compound 3, N-Benzyl-2-(2-nitro-1H-pyrrol-1-yl)acetamide]	42 ± 11.3	24.3	–
161 to 162	41 ± 12.7	O=C(Cn1cccc1[N+](=O)[O-])NCc1cccc(C(F)(F)F)c1 [Compound 15, 2-(2-Nitro-1H-pyrrol-1-yl)-N-[3-(trifluoromethyl)benzyl]acetamide]	43 ± 9.9	185 ± 5.1	–
–	–	O=C(Cn1cccc1[N+](=O)[O-])Nc1cccc(C(F)(F)F)c1 [Compound 18, 2-(2-Nitro-1H-pyrrol-1-yl)-N-[3-(trifluoromethyl)phenyl]acetamide]	> 50	156 ± 2.9	EC50 (Vero host cells; [4]): > 50.1 µM; maximum effect (percent inhibition of intracellular amastigotes) ([1]; 96h treatment, two independent replicates, normalised to DMSO (0%) and nifurtimox controls (100%)): 71%; Emax ([1]; Trypanosoma cruzi, Vero, 96 h, 96h treatment, two independent replicates, normalised to DMSO (0%) and nifurtimox controls (100%), read-out: maximum effect (percent inhibition of intracellular amastigotes)): 79%; EC50 [1, 5]: 2.29 µM; EC50 [1, 6]: 4.9 µM; EC50 [1, 7]: < 10 µM and 3.6 µM
–	50	COc1cccc(NC(=O)Cn2cccc2[N+](=O)[O-])c1 [Compound 19, N-(3-Methoxyphenyl)-2-(2-nitro-1H-pyrrol-1-yl)acetamide]	> 50	260 ± 6.3	–
201 to 202	< 10	O=C(Cn1cccc1[N+](=O)[O-])Nc1ccccc1 [Compound 4, 2-(2-Nitro-1H-pyrrol-1-yl)-N-phenylacetamide]	14	262 ± 3.9	EC50 [1, 7]: 6 µM
–	–	COc1cccc2c1C(=O)c1c(O)c3c(c(O)c1C2=O)C[C@@](O)(C(=O)CO)C[C@@H]3O[C@H]1C[C@H](N)[C@H](O)[C@H](C)O1 [Doxorubicin, reference compound]	–	4.6 ± 0.08	–
185 to 186	–	O=C(Cn1cccc1[N+](=O)[O-])Nc1cc(F)ccc1Br [Compound 22, N-(2-Bromo-5-fluorophenyl)-2-(2-nitro-1H-pyrrol-1-yl)acetamide]	–	188 ± 4.4	–
–	2.1 ± 0.2	CC1CS(=O)(=O)CCN1/N=C/c1ccc([N+](=O)[O-])o1 (centres unmarked) [Nifurtimox, reference compound]	–	–	EC50 (Vero host cells; [4]): > 15.8 µM; EC50 [1, 5]: 2.04 µM; EC50 [1, 6]: 2.04 µM
–	50	O=C(Cn1cccc1[N+](=O)[O-])Nc1ccccc1Cl [Compound 17, N-(2-Chlorophenyl)-2-(2-nitro-1H-pyrrol-1-yl)acetamide]	> 50	198 ± 5.7	–
–	< 10	O=C(Cn1cccc1[N+](=O)[O-])Nc1ccc(Br)cc1 [Compound 16, N-(4-Bromophenyl)-2-(2-nitro-1H-pyrrol-1-yl)acetamide]	14.5 ± 0.7	173 ± 4.6	EC50 [1, 7]: 6.5 ± 0.6 µM
190 to 191	–	CC(C)NC(=O)Cn1cccc1[N+](=O)[O-] [Compound 20, N-Isopropyl-2-(2-nitro-1H-pyrrol-1-yl)acetamide]	–	321 ± 5.3	–
–	–	O=C(Cn1cccc1[N+](=O)[O-])NC1CCCC1 [Compound 21, N-Cyclopentyl-2-(2-nitro-1H-pyrrol-1-yl)acetamide]	–	303 ± 6.1	–
